Measurements taken from PMC9841524, “Structure-Based Rational Design of Small α-Helical Peptides with Broad-Spectrum Activity against Multidrug-Resistant Pathogens” (Journal of Medicinal Chemistry, 2022).
Where no end group is shown, it is not given here.

Tested on: P. aeruginosa (ATCC 27883)
Assay: MIC, standard microtiter dilution (CLSI)
Type: cell-based, Pseudomonas aeruginosa
Settings: broth microdilution (CLSI), CAMHB, 10^6 CFU/mL, 37 °C, 24 h; highest MIC of three independent experiments in triplicate
Summary of the method: (§1)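 Broth microdilution per CLSI: overnight cultures diluted in cation-adjusted Mueller Hinton Broth to 10^6 CFU/mL, mixed with 2-fold serial peptide dilutions, incubated 37 °C for 24 h. MIC = lowest peptide concentration inhibiting growth. Three independent assays in triplicate.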

| Substance | MIC, P. aeruginosa (ATCC 27883) [µg/mL] |
| --- | --- |
| KWAKKWWKWWKK-NH2 [6e] | 25 |
| KWLKKWWKWWKK-NH2 [8e] | 12.5 |
| RWARRWARWWRR-NH2 [6a] | 100 |

Same assay, conditions: value in parentheses (μM); broth microdilution (CLSI), CAMHB, 37 °C, 24 h

| Substance | MIC, P. aeruginosa (ATCC 27883) [µM] |
| --- | --- |
| KWAKKWWKWWKK-NH2 [6e] | 13.98 |
| KWLKKWWKWWKK-NH2 [8e] | 6.83 |
| RWARRWARWWRR-NH2 [6a] | 54.31 |

Tested on: not listed separately
Assay: Relative hydrophobicity as RP-HPLC retention time
Type: physicochemical
Settings: chromatographic, Phenomenex Luna C18 4 μm 150 × 4.6 mm, linear AB gradient 1% acetonitrile/min, 0.3 mL/min, A water 0.1% TFA, B acetonitrile 0.1% TFA, 25 °C
Description: The purity analysis of the peptides was conducted on a RP-HPLC system (Shimadzu; LC-20ADXR) by using a Phenomenex (Luna) analytical C18 column (4 μm, 150 × 4.6 mm). The mass of the purified peptides was determined in the positive-ion mode using Q-TOF LC/MS (Compass Hystar 4.1, Bruker, USA). The purity (>95%) and mass data of all the synthesized peptides are provided in the Supporting Information.
8. Comparative Hydrophobicity analysis
The purity of all synthesized peptides was determined using reverse phase analytical HPLC
(Shimadzu; LC-20ADXR). Below mentioned are the conditions used to conduct the purity
Column: Phenomenex (Luna), 4 um, C18, 150 × 4.6 mm
Mobile Phase: Buffer A-Water containing 0.1% TFA,
Buffer B-Acetonitrile containing 0.1% TFA
Figure S52. HPLC chromatogram of 6a.
(1 picture or pasted object on this page, not shown here)

| Substance | tR, RP-HPLC retention time (measure of overall hydrophobicity) [min] |
| --- | --- |
| KWAKKWWKWWKK-NH2 [6e] | 29.87 |
| KWLKKWWKWWKK-NH2 [8e] | 34.10 |
| RWARRWARWWRR-NH2 [6a] | 30.42 |

Tested on: not listed separately
Assay: CD spectroscopy, helicity;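 for % of helicity induced by Liposomes: share of the total helicity with liposomes gained over the same peptide in PBS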;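 for % of helicity induced by TFE: share of the total helicity in TFE gained over the same peptide in PBS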
Type: physicochemical
Design: key to Δ[θ]222 induced by TFE / Δ[θ]222 induced by Liposomes: mean residue molar ellipticity, mdeg cm2/(dmol × res)
Settings: CD
Description: The CD spectra of peptides were recorded using a Jasco J-1500 CD spectrophotometer (Jasco, Easton, MD) at 25 °C with a 1 mm path length cell. Wavelengths from 190 to 260 nm were scanned with 1.0 nm step resolution, 100 nm/min speed, 0.4 s response time, and 1 nm bandwidth. CD spectra of the peptides were collected and averaged over three scans in 10 mM sodium phosphate buffer (pH 7.2), helix-inducing solvent 50% TFE (v/v), and bacterial mimic liposomes (75 μM lipid). Spectra were corrected by subtracting a baseline spectrum containing only buffer or 50% TFE or liposomes. The mean residue molar ellipticity was calculated using the formula [drawing 3] where Ab222 is the absorbance observed at 222 nm, MRW is the mean residue molecular weight, C is the concentration in mg/mL, and L is the path length.
Table S1. RP-HPLC retention times and CD spectroscopy analysis of the selected peptides Peptide tR (min)a [θ]222b Δ[θ]222 induced by % of helicity inducedc by PBS TFE Liposomes TFE Liposomes TFE Liposomes […]
atR (min) denotes the retention time at 25°C by RP-HPLC. bThe mean residue molar ellipticity [θ] 222 (mdeg cm2/(dmol × res)) at 222 nm was measured at 25 °C in phosphate buffer saline (PBS, pH 7.0), in aqueous buﬀer containing 50% TFE (TFE), or in presence of bacterial membrane mimicking liposomes (peptide:lipid […]
c% helix induced is the increase in the molar ellipticity at 222 nm (in percentage) of a peptide in the presence of TFE or liposomes.

| Substance | increase in helicity in the presence of liposomes, as compared to PBS |
| --- | --- |
| RWARRWARWWRR-NH2 [6a] | about 50% |

Same assay, conditions: CD at 222 nm, 25 °C, aqueous buffer containing 50% TFE

| Substance | [θ]222 mean residue molar ellipticity, TFE |
| --- | --- |
| KWAKKWWKWWKK-NH2 [6e] | -18419 mdeg cm2/(dmol × res) |
| KWLKKWWKWWKK-NH2 [8e] | -11148 mdeg cm2/(dmol × res) |
| RWARRWARWWRR-NH2 [6a] | -13346 mdeg cm2/(dmol × res) |

Same assay, conditions: CD at 222 nm, 25 °C, bacterial membrane mimicking liposomes, peptide:lipid molar ratio 1:1.05

| Substance | [θ]222 mean residue molar ellipticity, Liposomes |
| --- | --- |
| KWAKKWWKWWKK-NH2 [6e] | -13181 mdeg cm2/(dmol × res) |
| KWLKKWWKWWKK-NH2 [8e] | -15042 mdeg cm2/(dmol × res) |
| RWARRWARWWRR-NH2 [6a] | -13245 mdeg cm2/(dmol × res) |

Same assay, conditions: CD at 222 nm, 25 °C, phosphate buffer saline pH 7.0

| Substance | [θ]222 mean residue molar ellipticity, PBS |
| --- | --- |
| KWAKKWWKWWKK-NH2 [6e] | -7968 mdeg cm2/(dmol × res) |
| KWLKKWWKWWKK-NH2 [8e] | -5411 mdeg cm2/(dmol × res) |
| RWARRWARWWRR-NH2 [6a] | -6737 mdeg cm2/(dmol × res) |

Same assay, conditions: difference to PBS; 50% TFE

| Substance | Δ[θ]222 induced by TFE |
| --- | --- |
| KWAKKWWKWWKK-NH2 [6e] | -10451 |
| KWLKKWWKWWKK-NH2 [8e] | -5736 |
| RWARRWARWWRR-NH2 [6a] | -6608 |

Same assay, conditions: difference to PBS; bacterial membrane mimicking liposomes

| Substance | Δ[θ]222 induced by Liposomes |
| --- | --- |
| KWAKKWWKWWKK-NH2 [6e] | -5213 |
| KWLKKWWKWWKK-NH2 [8e] | -9630 |
| RWARRWARWWRR-NH2 [6a] | -6508 |

Same assay, conditions: increase in molar ellipticity at 222 nm in the presence of 50% TFE

| Substance | % of helicity induced by TFE [%] |
| --- | --- |
| KWAKKWWKWWKK-NH2 [6e] | 56.74 |
| KWLKKWWKWWKK-NH2 [8e] | 51.45 |
| RWARRWARWWRR-NH2 [6a] | 49.51 |

Same assay, conditions: increase in molar ellipticity at 222 nm in the presence of liposomes

| Substance | % of helicity induced by Liposomes [%] |
| --- | --- |
| KWAKKWWKWWKK-NH2 [6e] | 39.55 |
| KWLKKWWKWWKK-NH2 [8e] | 64.02 |
| RWARRWARWWRR-NH2 [6a] | 49.13 |

Tested on: MRSA (ATCC BAA-1556)
Assay: not given
Settings: broth microdilution (CLSI), CAMHB, 10^6 CFU/mL, 37 °C, 24 h; highest MIC of three independent experiments in triplicate
Summary of the method: as §1

| Substance | MIC, MRSA (ATCC BAA-1556) [µg/mL] |
| --- | --- |
| KWAKKWWKWWKK-NH2 [6e] | 12.5 |
| KWLKKWWKWWKK-NH2 [8e] | 12.5 |
| RWARRWARWWRR-NH2 [6a] | 50 |

Same assay, conditions: value in parentheses (μM); broth microdilution (CLSI), CAMHB, 37 °C, 24 h

| Substance | MIC, MRSA (ATCC BAA-1556) [µM] |
| --- | --- |
| KWAKKWWKWWKK-NH2 [6e] | 6.99 |
| KWLKKWWKWWKK-NH2 [8e] | 6.83 |
| RWARRWARWWRR-NH2 [6a] | 27.16 |

Tested on: E. coli (ATCC 25922)
Assay: not given
Settings: broth microdilution (CLSI), CAMHB, 10^6 CFU/mL, 37 °C, 24 h; highest MIC of three independent experiments in triplicate
Summary of the method: as §1

| Substance | MIC, E. coli (ATCC 25922) [µg/mL] |
| --- | --- |
| KWAKKWWKWWKK-NH2 [6e] | 25 |
| KWLKKWWKWWKK-NH2 [8e] | 12.5 |
| RWARRWARWWRR-NH2 [6a] | > 100 |

Same assay, conditions: value in parentheses (μM); broth microdilution (CLSI), CAMHB, 37 °C, 24 h

| Substance | MIC, E. coli (ATCC 25922) [µM] |
| --- | --- |
| KWAKKWWKWWKK-NH2 [6e] | 13.98 |
| KWLKKWWKWWKK-NH2 [8e] | 6.83 |
| RWARRWARWWRR-NH2 [6a] | > 54.31 |

Tested on: S. aureus (ATCC 29213)
Assay: MIC, standard microtiter dilution (CLSI)
Type: cell-based
Settings: not given
Summary of the method: as §1

| Substance | MIC against S. aureus [µg/mL] |
| --- | --- |
| RWARRWARWWRR-NH2 [6a] | 50 |

Same assay, conditions: broth microdilution (CLSI), CAMHB, 10^6 CFU/mL, 37 °C, 24 h; highest MIC of three independent experiments in triplicate

| Substance | MIC, S. aureus (ATCC 29213) [µg/mL] |
| --- | --- |
| KWAKKWWKWWKK-NH2 [6e] | 12.5 |
| KWLKKWWKWWKK-NH2 [8e] | 12.5 |
| RWARRWARWWRR-NH2 [6a] | 50 |

Same assay, conditions: value in parentheses (μM); broth microdilution (CLSI), CAMHB, 37 °C, 24 h

| Substance | MIC, S. aureus (ATCC 29213) [µM] |
| --- | --- |
| KWAKKWWKWWKK-NH2 [6e] | 6.99 |
| KWLKKWWKWWKK-NH2 [8e] | 6.83 |
| RWARRWARWWRR-NH2 [6a] | 27.16 |

Tested on: human red blood cells (hRBCs)
Assay: Hemolytic assay
Type: cell-based
Settings: hRBC suspension 4% in PBS, 2 h, 37 °C, hemoglobin release at 567 nm; 1% Triton X-100 = 100%
Summary of the method: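 Percent hemolysis uses PBS as 0% and 1% Triton X-100 as 100% references, from supernatant absorbance at 567 nm. Red cells (4% in PBS, equal volume) exposed 2 h at 37 °C without agitation to 2-fold serially diluted peptide.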

| Substance | HC50 (concentration at which 50% hemolysis was observed) [µg/mL] |
| --- | --- |
| KWAKKWWKWWKK-NH2 [6e] | 360 |
| KWLKKWWKWWKK-NH2 [8e] | 240 |
| RWARRWARWWRR-NH2 [6a] | 230 |

Same assay, conditions: value in parentheses (μM); hRBC 4% in PBS, 2 h, 37 °C, 567 nm

| Substance | HC50 (concentration at which 50% hemolysis was observed) [µM] |
| --- | --- |
| KWAKKWWKWWKK-NH2 [6e] | 201.32 |
| KWLKKWWKWWKK-NH2 [8e] | 131.13 |
| RWARRWARWWRR-NH2 [6a] | 124.92 |

Tested on: K. pneumoniae (ATCCBAA-1705)
Assay: MIC, standard microtiter dilution (CLSI)
Type: cell-based, Klebsiella pneumoniae
Settings: broth microdilution (CLSI), CAMHB, 10^6 CFU/mL, 37 °C, 24 h; highest MIC of three independent experiments in triplicate
Summary of the method: as §1

| Substance | MIC, K. pneumoniae (ATCCBAA-1705) [µg/mL] |
| --- | --- |
| KWAKKWWKWWKK-NH2 [6e] | 50 |
| KWLKKWWKWWKK-NH2 [8e] | 25 |
| RWARRWARWWRR-NH2 [6a] | > 100 |

Same assay, conditions: value in parentheses (μM); broth microdilution (CLSI), CAMHB, 37 °C, 24 h

| Substance | MIC, K. pneumoniae (ATCCBAA-1705) [µM] |
| --- | --- |
| KWAKKWWKWWKK-NH2 [6e] | 27.96 |
| KWLKKWWKWWKK-NH2 [8e] | 13.66 |
| RWARRWARWWRR-NH2 [6a] | > 54.31 |
